The source of these data is patent US12419890B2, “Administration of sumo-activating enzyme inhibitor and checkpoint inhibitors” (Takeda Pharmaceutical Company Limited, priority 2019, dated 2025).

For experiment [1], the system named is WEHI-3 syngeneic mouse myelomonocytic leukemia-derived subcutaneous tumor. Kind of experiment: WEHI-3 Study 4: mouse WEHI-3 syngeneic tumor model, individual tumor volume. It is filed as in vivo. The following applies: Compound I-263a 7.5 mg/kg IV BIWx3. As to the method:
WEHI-3 Study 4: WEHI-3 is a mouse myelomonocytic leukemia cell line. WEHI-3 mouse syngeneic tumor model was generated by subcutaneous inoculation with 0.1×10^6 WEHI-3 cells (cell suspension) in 13 weeks old female BALB/c mice (Jackson Laboratory, 600 Main St, Bar Harbor, ME) in the flank. When the mean tumor volume reached approximately 50 mm^3, the animals were randomized into one vehicle control and five treatment groups (n=8/group). Mice were then dosed with 20% HPbCD or Compound I-263a or anti-mouse PD-1 antibody or anti-mouse CTLA-4 antibody over a 21-day period. Tumor growth and body weight were measured twice per week during the treatment and post-treatment periods, and mice were humanely euthanized once they had reached their humane endpoint.
Study 4: A 1.01 mg/mL stock solution of Compound I-263a was formulated weekly in 20% HPβCD and administered intravenously (IV) based on exact animal body weight on each day of treatment, using a dosing volume of 10 mL/kg body weight. Final doses received were 7.5 mg/kg. Dosing volume for Compound I-263a was 0.2 mL. […]
Tumors were measured twice weekly using vernier calipers. Tumor volumes were calculated using standard equation: V=W^2×L/2, where V=volume, W=width, and L=length for the tumor. […] Tumor size and body weight were measured twice a week for the duration of the study. […]

Experiment [2] concerns SUMO-activating enzyme and SUMOylation. Description: inhibition of SUMO-activating enzyme and SUMOylation in cultured tumor cell lines. It counts as cell-based. The following applies: cultured mouse and human tumor cell lines. An excerpt: SAE inhibitors, as disclosed herein, are described, for example, in US 2016/0009744 and U.S. Pat. No. 9,695,154. They may be prepared by methods known to one skilled in the art and/or according to the methods described in US 2016/0009744 and U.S. Pat. No. 9,695,154, which is hereby incorporated by reference in its entirety. Central to the mechanism of action of useful SAE inhibitors, such as Compound I-263a, in combinations and methods of the present disclosure is production of type 1 IFNs and induction of an innate immune response with activation of dendritic cells, natural killer (NK) cells and macrophages.

The structures appear in SMILES notation.

Turning to `Cc1sc(C(=O)c2cncnc2N[C@@H]2C[C@H](COS(N)(=O)=O)[C@@H](O)C2)cc1[C@@H]1NCCc2ccc(Cl)cc21` [Compound I-263a, [(1R,2S,4R)-4-{[5-({4-[(1R)-7-chloro-1,2,3,4-tetrahydroisoquinolin-1-yl]-5-methyl-2-thienyl}carbonyl)pyrimidin-4-yl]amino}-2-hydroxycyclopentyl]methyl sulfamate], in experiment [1] (8 tumors/group), the “effect on tumor growth” value is given as “very little effect”. Besides, the “slight tumor growth delays” value in experiment [1] (delay to day 14, out of 8 implanted tumors) came out at 2. Besides, the “inhibition of SUMO-activating enzyme and SUMOylation” value in experiment [2] is “Selective and potent inhibition”.
